Assay results reported in patent publication US8053418B2, “Anti-penicillin resistant pneumococci agent and novel 16-membered macrolide derivative” (Microbial Chemistry Research Foundation, priority 2005, dated 2011).
In brackets after ≈: the same amount, converted by molar mass.

Assays:
Assay type in all cases: cell-based
[1] = tested on: Streptococcus pneumoniae IMC B-0919 (PRSP); assay: Antimicrobial activity test (MIC), clinical isolate IMC B-0919
Experimental: (§1) Using Streptococcus pneumoniae that include clinical isolates of PRSP, the antimicrobial activity of each of the prepared anti-PRSP agents was measured in accordance with the “determination method of minimum inhibitory concentration of drug against bacteria” of Japanese Society of Chemotherapy (for re-revised version, see Chemotherapy 29; 76, 1981).
(§2) 11 test strains of Streptococcus pneumoniae including IMC B-0919 are all clinical isolates, of which 2 strains, IMC B-0921 and IMC B-1229, are classified into penicillin susceptible Streptococcus pneumoniae (PSSP) and the remaining 9 strains are classified into penicillin-resistant Streptococcus pneumoniae (PRSP) (according to NCCLS standards).

[2] = tested on: Streptococcus pneumoniae IMC B-0920 (PRSP); assay: Antimicrobial activity test (MIC), clinical isolate IMC B-0920
Experimental: as §1, §2

[3] = tested on: Streptococcus pneumoniae IMC B-0922 (PRSP); assay: Antimicrobial activity test (MIC), clinical isolate IMC B-0922
Experimental: as §1, §2

[4] = tested on: Streptococcus pneumoniae IMC B-1231 (PRSP); assay: Antimicrobial activity test (MIC), clinical isolate IMC B-1231
Experimental: as §1, §2

[5] = tested on: Streptococcus pneumoniae IMC B-1232 (PRSP); assay: Antimicrobial activity test (MIC), clinical isolate IMC B-1232
Experimental: as §1, §2

[6] = tested on: Streptococcus pneumoniae IMC B-1233 (PRSP); assay: Antimicrobial activity test (MIC), clinical isolate IMC B-1233
Experimental: as §1, §2

[7] = tested on: Streptococcus pneumoniae IMC B-1234 (PRSP); assay: Antimicrobial activity test (MIC), clinical isolate IMC B-1234
Experimental: as §1, §2

[8] = tested on: Streptococcus pneumoniae IMC B-1235 (PRSP); assay: Antimicrobial activity test (MIC), clinical isolate IMC B-1235
Experimental: as §1, §2

[9] = tested on: Streptococcus pneumoniae IMC B-1236 (PRSP); assay: Antimicrobial activity test (MIC), clinical isolate IMC B-1236
Experimental: as §1, §2

[10] = tested on: Streptococcus pneumoniae IMC B-0921 (PSSP); assay: Antimicrobial activity test (MIC), clinical isolate IMC B-0921
Experimental: as §1, §2

[11] = tested on: Streptococcus pneumoniae IMC B-1229 (PSSP); assay: Antimicrobial activity test (MIC), clinical isolate IMC B-1229
Experimental: as §1, §2

[12] = PRSP clinical isolate IMC B-0919
[13] = Streptococcus pneumoniae IMC B-0919, PRSP
[14] = PRSP clinical isolate IMC B-0920
[15] = Streptococcus pneumoniae IMC B-0920, PRSP
[16] = PRSP clinical isolate IMC B-0922
[17] = Streptococcus pneumoniae IMC B-0922, PRSP
[18] = PRSP clinical isolate IMC B-1231
[19] = Streptococcus pneumoniae IMC B-1231, PRSP
[20] = PRSP clinical isolate IMC B-1232
[21] = Streptococcus pneumoniae IMC B-1232, PRSP
[22] = PRSP clinical isolate IMC B-1233
[23] = Streptococcus pneumoniae IMC B-1233, PRSP
[24] = PRSP clinical isolate IMC B-1234
[25] = Streptococcus pneumoniae IMC B-1234, PRSP
[26] = PRSP clinical isolate IMC B-1235
[27] = Streptococcus pneumoniae IMC B-1235, PRSP
[28] = PRSP clinical isolate IMC B-1236
[29] = Streptococcus pneumoniae IMC B-1236, PRSP
[30] = PSSP clinical isolate IMC B-0921
[31] = Streptococcus pneumoniae IMC B-0921, PSSP
[32] = PSSP clinical isolate IMC B-1229
[33] = Streptococcus pneumoniae IMC B-1229, PSSP

SMILES	MIC [1, 12] [µg/mL]	MIC [1, 13] [µg/mL]	MIC [2, 14] [µg/mL]	MIC [2, 15] [µg/mL]	MIC [3, 16] [µg/mL]	MIC [3, 17] [µg/mL]	MIC [4, 18] [µg/mL]	MIC [4, 19] [µg/mL]	MIC [5, 20] [µg/mL]	MIC [5, 21] [µg/mL]	MIC [6, 22] [µg/mL]	MIC [6, 23] [µg/mL]	MIC [7, 24] [µg/mL]	MIC [7, 25] [µg/mL]	MIC [8, 26] [µg/mL]	MIC [8, 27] [µg/mL]	MIC [9, 28] [µg/mL]	MIC [9, 29] [µg/mL]	MIC [10, 30] [µg/mL]	MIC [11, 32] [µg/mL]	further results
CCC1OC(=O)CCC(C)C(OC2OC(C)CC(N(C)C)C2O)C(CC=O)CC(C)C(=O)C=CC(C)=CC1COC(=O)NCc1ccc(OC)cc1 (stereo not shown) [MKT-1011]	0.1 (≈ 0.137 µM)	0.1 (≈ 0.137 µM)	0.1 (≈ 0.137 µM)	0.1 (≈ 0.137 µM)	0.2 (≈ 0.274 µM)	0.2 (≈ 0.274 µM)	50 (≈ 68.6 µM)	50 (≈ 68.6 µM)	0.1 (≈ 0.137 µM)	0.1 (≈ 0.137 µM)	0.1 (≈ 0.137 µM)	0.1 (≈ 0.137 µM)	0.1 (≈ 0.137 µM)	0.1 (≈ 0.137 µM)	6.25 (≈ 8.57 µM)	6.25 (≈ 8.57 µM)	1.56 (≈ 2.14 µM)	1.56 (≈ 2.14 µM)	0.1 (≈ 0.137 µM)	0.2 (≈ 0.274 µM)	MIC [10, 31]: 0.1 µg/mL (≈ 0.137 µM); MIC [11, 33]: 0.2 µg/mL (≈ 0.274 µM)
CCC1OC(=O)CCC(C)C(OC2OC(C)CC(N(C)C)C2O)C(CC=O)CC(C)C(=O)C=CC(C)=CC1COC(=O)Cc1ccccc1 (stereo not shown) [MKT-2005]	0.2 (≈ 0.292 µM)	–	0.2 (≈ 0.292 µM)	–	0.1 (≈ 0.146 µM)	–	0.78 (≈ 1.14 µM)	–	0.05 (≈ 0.0731 µM)	–	<0.025	–	0.1 (≈ 0.146 µM)	–	1.56 (≈ 2.28 µM)	–	3.13 (≈ 4.58 µM)	–	0.05 (≈ 0.0731 µM)	0.1 (≈ 0.146 µM)	–
CC=CC=CC(=O)OCC1C=C(C)C=CC(=O)C(C)CC(CC=O)C(OC2OC(C)CC(N(C)C)C2O)C(C)CCC(=O)OC1CC (stereo not shown) [MKT-2110]	–	0.05 (≈ 0.0758 µM)	–	0.20 (≈ 0.303 µM)	–	0.10 (≈ 0.152 µM)	–	25 (≈ 37.9 µM)	–	0.20 (≈ 0.303 µM)	–	0.10 (≈ 0.152 µM)	–	0.10 (≈ 0.152 µM)	–	50 (≈ 75.8 µM)	–	12.5 (≈ 18.9 µM)	–	–	MIC [10, 31]: 0.10 µg/mL (≈ 0.152 µM); MIC [11, 33]: 0.20 µg/mL (≈ 0.303 µM)
CCC1OC(=O)CCC(C)C(OC2OC(C)CC(N(C)C)C2O)C(CC=O)CC(C)C(=O)C=CC(C)=CC1CI (stereo not shown) [MKT-3001]	0.39 (≈ 0.577 µM)	–	0.2 (≈ 0.296 µM)	–	0.2 (≈ 0.296 µM)	–	>50	–	0.1 (≈ 0.148 µM)	–	0.2 (≈ 0.296 µM)	–	0.2 (≈ 0.296 µM)	–	50 (≈ 74 µM)	–	25 (≈ 37 µM)	–	0.2 (≈ 0.296 µM)	0.39 (≈ 0.577 µM)	–
CCC1OC(=O)CCC(C)C(OC2OC(C)CC(N(C)C)C2O)C(CC=O)CC(C)C(=O)C=CC(C)=CC1CN=[N+]=[N-] (stereo not shown) [MKT-3004]	0.2 (≈ 0.339 µM)	–	0.1 (≈ 0.169 µM)	–	0.1 (≈ 0.169 µM)	–	25 (≈ 42.3 µM)	–	0.2 (≈ 0.339 µM)	–	0.2 (≈ 0.339 µM)	–	0.2 (≈ 0.339 µM)	–	50 (≈ 84.6 µM)	–	50 (≈ 84.6 µM)	–	0.1 (≈ 0.169 µM)	0.1 (≈ 0.169 µM)	–
CCC1OC(=O)CCC(C)C(OC2OC(C)CC(N(C)C)C2O)C(CC=O)CC(C)C(=O)C=CC(C)=CC1CN (stereo not shown) [MKT-3005]	0.78 (≈ 1.38 µM)	–	1.56 (≈ 2.76 µM)	–	0.39 (≈ 0.691 µM)	–	50 (≈ 88.5 µM)	–	0.2 (≈ 0.354 µM)	–	0.05 (≈ 0.0885 µM)	–	0.2 (≈ 0.354 µM)	–	100 (≈ 177 µM)	–	100 (≈ 177 µM)	–	0.1 (≈ 0.177 µM)	0.2 (≈ 0.354 µM)	–
CCC1OC(=O)CCC(C)C(OC2OC(C)CC(N(C)C)C2O)C(CC=O)CC(C)C(=O)C=CC(C)=CC1CCl (stereo not shown) [MKT-3007]	–	0.20 (≈ 0.342 µM)	–	0.20 (≈ 0.342 µM)	–	0.20 (≈ 0.342 µM)	–	25 (≈ 42.8 µM)	–	0.20 (≈ 0.342 µM)	–	0.20 (≈ 0.342 µM)	–	0.20 (≈ 0.342 µM)	–	50 (≈ 85.6 µM)	–	50 (≈ 85.6 µM)	–	–	MIC [10, 31]: 0.10 µg/mL (≈ 0.171 µM); MIC [11, 33]: 0.20 µg/mL (≈ 0.342 µM)
